From US7906502B2, “2-azetidinone derivatives as cholesterol absorption inhibitors for the treatment of hyperlipidaemic conditions” (AstraZeneca AB, priority 2005, dated 2011) come the findings set out here.

Series [1] in a line: Absorption in a Caco-2 cells model. The series is classed as in vitro ADME. Particulars: human. The procedure:
Absorption of the compounds of formula (I) was tested in a Caco-2 cells model (Gastroenterology 1989, 96, 736): […]

The subject of series [2] is 14C-cholesterol absorption. Briefly: In vivo testing of cholesterol absorption inhibitors (A). Particulars: 0.2 μmol/kg, gavage, procedure A, mice. The arrangement: species or system C57BL/6 female mice. On the procedure: In vivo Testing of Cholesterol Absorption Inhibitors (A)
C57BL/6 female mice were maintained on regular chow diet and housed in individual cages to collect faeces. Mice were fasted for 3 hours and then gavaged with vehicle or compound. Half an hour later the mice were gavaged with radiolabelled cholesterol. Six hours after the ^14C-cholesterol gavage blood samples were taken via the tail and plasma prepared to determine how much cholesterol were absorbed. 24 hours after the gavage of ^14C-cholesterol the mice were bled and plasma were prepared for analysis. Faeces were collected for 24 hours to assess absorption efficiency.

For the molecule `O=C(COc1ccc([C@@H]2[C@@H](SCC(O)c3ccc4c(c3)OCO4)C(=O)N2c2ccc(F)cc2)cc1)NCC(=O)N[C@H](CC1CCCCC1)C(=O)O` (single isomer, unassigned) [Example 13, N-({4-[(2R,3R)-3-{[(2R or S)-2-(1,3-benzodioxol-5-yl)-2-hydroxyethyl]thio}-1-(4-fluorophenyl)-4-oxoazetidin-2-yl]phenoxy}acetyl)glycyl-3-cyclohexyl-D-alanine], the apparent permeability (Papp) in series [1] came to 0.05 ×10⁻⁶ cm/s.

For the molecule `CC(C)(C)[C@@H](NC(=O)CNC(=O)COc1ccc([C@@H]2[C@@H](SCC(O)c3ccc4c(c3)OCCO4)C(=O)N2c2ccc(F)cc2)cc1)C(=O)O` (stereo partly drawn) [Example 1, N-({4-[(2R,3R)-3-{[2-(2,3-dihydro-1,4-benzodioxin-6-yl)-2-hydroxyethyl]thio}-1-(4-fluorophenyl)-4-oxoazetidin-2-yl]phenoxy}acetyl)glycyl-3-methyl-D-valine], the “inhibition of 14C-cholesterol absorption” value in series [2] amounted to 61%. The molecule further showed a Papp in series [1] of 0.02 ×10⁻⁶ cm/s.

In the case of `CC(C)(C)[C@@H](NC(=O)CNC(=O)COc1ccc([C@@H]2[C@@H](SCC(O)c3ccc4c(c3)OCO4)C(=O)N2c2ccc(F)cc2)cc1)C(=O)O` (stereo partly drawn) [Example 3, N-({4-[(2R,3R)-3-{[2-(1,3-Benzodioxol-5-yl)-2-hydroxyethyl]thio}-1-(4-fluorophenyl)-4-oxoazetidin-2-yl]phenoxy}acetyl)glycyl-3-methyl-D-valine], in series [2], the “inhibition of 14C-cholesterol absorption” value is on record as 67%.

In general, Papp refers to a coefficient for how fast a substance crosses the barrier. A high value points to fast passage.
